System: 4-methyl-5-(2-hydroxyethyl)thiazole kinase from E. coli
Test: Kinetic parameters of crotyl alcohol phosphorylation (spectrophotometric assay of Example 2)
Assay type: biochemical
Conditions: crotyl alcohol phosphorylation by purified E. coli kinase
Description: The release of ADP that is associated with crotyl alcohol phosphorylation was quantified using the pyruvate kinase/lactate dehydrogenase coupled assay (FIG. 5). The purified 4-methyl-5-(2-hydroxyethyl)thiazole kinases from Escherichia coli (SEQ ID NO:2), Bacillus subtilis (SEQ ID NO:1), Rhizobium leguminosarum (SEQ ID NO:3) were evaluated for their ability to phosphorylate crotyl alcohol releasing ADP. The studied enzymatic reaction was carried out under the following conditions at 37° C.: • 50 mM Tris-HCl pH 7.5 • 10 mM MgCl2 • 100 mM KCl • 5 mM ATP • 0.4 mM NADH • 1 mM Phosphoenolpyruvate • 3 U/ml Lactate dehydrogenase • 1.5 U/ml Pyruvate kinase • 50 mM crotyl alcohol, mixture cis and trans • The pH was adjusted to 7.5
Each assay was started by addition of a particular enzyme at a concentration 0.05 mg/ml and the disappearance of NADH was monitored by following the absorbance at 340 nm.
Kinetic parameters of crotyl alcohol phosphorylation were determined using the spectrophotometric assay described in Example 2.

Compound	Km [mM]
C/C=C\CO [Cis crotyl alcohol]	13.6
C/C=C/CO [Trans crotyl alcohol]	30
